The data set can be described thus: Hygroscopicity: water content of crystals after storage in a desiccator (e.g. Karl Fischer method). Type of data set: physicochemical. To be noted: after 24 hours inside a dessicator at 60°C and a humidity of 100%. On the procedure: Aripiprazole Anhydride Crystals B of the present invention have low hygroscopicity. For example, Aripiprazole Anhydride Crystals B of the present invention maintain a water content of 0.4% or less after 24 hours inside a dessicator set at a temperature of 60°C and a humidity of 100%.
Well-known methods of measuring water content can be used as long as they are methods commonly used for measuring the water content of crystals. For example, a method such as the Karl Fischer method can be used.

Some results are limits rather than exact numbers.

Compound `O=C1CCc2ccc(OCCCCN3CCN(c4cccc(Cl)c4Cl)CC3)cc2N1` [Aripiprazole Anhydride Crystals B, aripiprazole] gave a water content of at most 0.4%.
